Data as given in ChEMBL document CHEMBL3414567, “Novel hybrid DHPM-fatty acids: synthesis and activity against glioma cell growth in vitro” (Eur J Med Chem, 2015).
Calls of active or inactive are those of the source. No cut-off for these calls is given here.

How the values were obtained:
C6 [1] = test: Cytotoxicity against rat C6 cells assessed as reduction of cell viability at 50 uM after 24 hrs by MTT assay; assay type: functional, cell-based
[2] = Cytotoxicity against human U138MG cells assessed as reduction of cell viability at 50 uM after 24 hrs by MTT assay relative to control; assay type: functional, U138-MG
[3] = Cytotoxicity against Wistar rat organotypic hippocampal slice cultures assessed as neural cell death at 200 uM after 24 hrs by propidium iodide staining-based fluorescence image analysis; set-up: species or system Hippocampus
C6 [4] = test: Cytotoxicity against rat C6 cells assessed as reduction of cell viability at 25 uM after 24 hrs by MTT assay; assay type: functional, cell-based
C6 [5] = test: Cytotoxicity against rat C6 cells assessed as growth inhibition at 150 uM relative to control; assay type: functional; settings: read-out: GI
[6] = Cytotoxicity against human U138MG cells assessed as growth inhibition at 150 uM relative to control; assay type: functional; settings: U138-MG, read-out: GI
[7] = Cytotoxicity against human U138MG cells assessed as reduction of cell viability at 10 uM after 24 hrs by MTT assay relative to control; assay type: functional, U138-MG
C6 [8] = test: Cytotoxicity against rat C6 cells assessed as reduction of cell viability after 24 hrs by MTT assay; assay type: functional, cell-based
U138-MG = test: Cytotoxicity against human U138MG cells assessed as reduction of cell viability after 24 hrs by MTT assay; assay type: functional, cell-based

Row | SMILES | Activity (C6 [1]) | Activity [2] | Activity [3] | further results
1 | CCCCCCCC/C=C\CCCCCCCCOC(=O)C1=C(C)NC(=O)NC1c1cccc(O)c1 (stereo unspecified) | Active | 70% | Non-toxic | Activity (C6 [4]): Active
2 | CCOC(=O)C1=C(C)NC(=S)NC1c1cccc(O)c1 (stereo unspecified) [MONASTROL] | – | – | – | inhibition of growth at 150 µM (C6 [5]): 30%; inhibition of growth at 150 µM [6]: 30%
3 | CCCCCCCCCCCCCCCCOC(=O)C1=C(C)NC(=S)NC1c1cccc(O)c1 (stereo unspecified) | Active | 70% | Non-toxic | Activity (C6 [4]): Active
4 | CCCCCCCC/C=C\CCCCCCCCOC(=O)C1=C(C)NC(=S)NC1c1cccc(O)c1 (stereo unspecified) | Active | 70% | Non-toxic | –
5 | CCCCCCCCCCCCCCCCOC(=O)C1=C(C)NC(=O)NC1c1cccc(O)c1 (stereo unspecified) | Active | 70% | Non-toxic | Activity [7]: 50%
6 | CCCCCCCC/C=C\CCCCCCCCOC(=O)C1=C(C)NC(=O)NC1c1ccccc1 (stereo unspecified) | – | – | Non-toxic | Activity (C6 [8]): Dose-dependent effect; Activity (U138-MG): Dose-dependent effect
7 | CCCCCCCCCCCCCCCCCCOC(=O)C1=C(C)NC(=S)NC1c1cccc(O)c1 (stereo unspecified) | inactive | – | – | –
